Reference: paper PMC5963640 (Journal of Ocular Pharmacology and Therapeutics, 2018)

Key:
primary HTM cells = experiment: TGF-β2-induced expression of fibrogenic markers, immunofluorescence; format: cell-based, human; conditions: 500 nM netarsudil plus 8 ng/mL TGF-β2, 24 h
Experimental: Cells were grown on gelatin (2%)-coated coverslips until they were semi-confluent. […] The cells were then assessed for induction of the fibrogenic markers α-smooth muscle actin (α-SMA), Collagen I, and fibroblast-specific protein 1 (FSP1) using immunofluorescence staining as previously described.[29] Mouse monoclonal antibody against α-SMA was purchased from Sigma-Aldrich, rabbit anti-FSP1 antibody from EMD Millipore (Billerica, MA), and rabbit anti-Collagen I antibody from Abcam (Cambridge, MA).

[1] = test system: transformed human TM (HTM) cells (TM-1); experiment: Disruption of focal adhesions, high-content screening; format: cell-based; conditions: 6 h, read-out: HTM IC50 (disruption of focal adhesions)
[2] = In vitro corneal metabolism, dog; format: in vitro ADME, beagle dogs; conditions: beagle, corneal tissue punches, 37°C, pH 6.5, read-out: t1/2 of corneal metabolism
Experimental: (§1) Enucleated pig eyes (n = 3) were harvested at a local abattoir, stored on ice, and used within 4 h of slaughter. For eyes harvested from beagle dogs (n = 3; Calvert Laboratories, Pittston, PA), Dutch Belted rabbits (n = 3; Robinson Services, Mockesville, NC), and cynomolgus monkeys (n = 4; Covance, Madison, WI), intact globes were stored in K-Sol corneal preservation buffer[31] under cold conditions and used within 24 h of sacrifice. Human corneas (n = 3) were acquired from The Eye Bank for Sight Restoration (New York, NY). The weights of the corneal punches were approximately the same for the dog, pig, human, and rabbit, whereas monkey corneal punches were approximately half of the weight of the others. Corneal punches were stored in phosphate-buffered saline and used within 1 h of preparation.
(§2) Samples were incubated at 37°C and reactions were subsequently terminated at appropriate time intervals by transferring a 100 μL aliquot of solution to an equal volume of cold acetonitrile followed by thorough trituration. The samples were centrifuged at 10,000 g for 10 min and the supernatants analyzed by high performance liquid chromatography (HPLC) using a Waters Alliance 2695 HPLC (Milford, MA) equipped with a Symmetry C18 4.6 × 75 mm 3.5 μm column.

[3] = In vitro corneal metabolism, human; format: in vitro ADME; conditions: corneal tissue punches, 37°C, pH 6.5, read-out: t1/2 of corneal metabolism
Experimental: as §1, §2

[4] = In vitro corneal metabolism, pig; format: in vitro ADME; conditions: corneal tissue punches, 37°C, pH 6.5, read-out: t1/2 of corneal metabolism
Experimental: as §1, §2

Formosan Rock monkeys = experiment: Ocular tolerability (modified Draize, hyperemia score) in monkeys; conditions: 0.01%, 0.02% and 0.04% solutions, once daily for 3 days
[5] = biological target: norepinephrine transporter (NET) (Homo sapiens, UniProt P23975); experiment: NET inhibitory activity (data not shown)
norepinephrine transporter (NET), sequence (P23975 whole entry, species assumed): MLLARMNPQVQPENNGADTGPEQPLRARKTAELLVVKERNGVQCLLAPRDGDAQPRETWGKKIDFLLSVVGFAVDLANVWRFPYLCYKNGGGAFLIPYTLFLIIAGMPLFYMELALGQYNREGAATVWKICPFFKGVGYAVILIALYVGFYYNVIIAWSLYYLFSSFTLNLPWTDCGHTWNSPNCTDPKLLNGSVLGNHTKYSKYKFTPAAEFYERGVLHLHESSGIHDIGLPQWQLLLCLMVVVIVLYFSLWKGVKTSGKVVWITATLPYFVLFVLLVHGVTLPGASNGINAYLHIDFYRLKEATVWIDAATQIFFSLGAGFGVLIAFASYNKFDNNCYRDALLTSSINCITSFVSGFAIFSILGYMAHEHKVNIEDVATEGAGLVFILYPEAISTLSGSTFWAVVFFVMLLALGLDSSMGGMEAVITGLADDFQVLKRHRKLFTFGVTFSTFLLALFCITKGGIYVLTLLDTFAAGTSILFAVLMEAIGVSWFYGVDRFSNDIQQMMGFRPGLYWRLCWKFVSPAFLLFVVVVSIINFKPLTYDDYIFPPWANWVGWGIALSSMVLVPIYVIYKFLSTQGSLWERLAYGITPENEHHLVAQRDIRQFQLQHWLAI

[6] = biological target: T1, calcium/calmodulin-dependent protein kinase II Alpha (CAMK2A) (Homo sapiens, UniProt Q9UQM7); experiment: Kinase-Glo luminescent protein kinase assay, CAMK2A; format: biochemical; conditions: average of ≥3 replicate experiments; read-out: CAM2A Ki
T1 construct: purchased Invitrogen/Life Technologies
T1 sequence (Q9UQM7 whole entry): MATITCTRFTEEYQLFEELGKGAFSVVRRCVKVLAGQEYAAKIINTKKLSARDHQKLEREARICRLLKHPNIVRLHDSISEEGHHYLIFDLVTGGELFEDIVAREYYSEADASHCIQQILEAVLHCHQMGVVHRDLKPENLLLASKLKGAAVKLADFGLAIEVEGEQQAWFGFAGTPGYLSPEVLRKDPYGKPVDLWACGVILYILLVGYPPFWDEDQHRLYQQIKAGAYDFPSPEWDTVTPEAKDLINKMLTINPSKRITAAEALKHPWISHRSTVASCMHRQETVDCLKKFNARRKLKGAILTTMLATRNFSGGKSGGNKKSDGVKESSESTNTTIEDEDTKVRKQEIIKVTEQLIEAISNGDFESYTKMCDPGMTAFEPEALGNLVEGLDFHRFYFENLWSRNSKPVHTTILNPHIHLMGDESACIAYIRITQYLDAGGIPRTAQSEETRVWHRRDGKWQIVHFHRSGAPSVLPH

live monkeys = test system: live monkeys; parameters: method as in PMID 25535688; conditions: 6 h after topical dosing, 0.04%; cited from earlier work
Dutch Belted rabbits = experiment: Ocular tolerability (modified Draize, hyperemia score) in rabbits; conditions: 0.005%, 0.01%, 0.02% and 0.04% solutions
[7] = Ocular metabolism: levels in aqueous humor after topical ocular dosing; format: in vivo, New Zealand rabbits
Experimental: In groups 1 and 2, the test article was dosed only once, and 100 μL samples of AH were taken from each eye by paracentesis at 4 or 6 h postdose, respectively. In groups 3 and 4, the test article was dosed once daily for 3 or 4 days, respectively, and 100 μL samples of AH were taken 4 h after dosing.

[8] = In vitro corneal metabolism, rabbit; format: in vitro ADME, Dutch Belted rabbits; conditions: Dutch Belted, corneal tissue punches, 37°C, pH 6.5, read-out: t1/2 of corneal metabolism
Experimental: as §1, §2

[9] = Absorption and distribution of radioactivity after single topical ocular dose; format: in vivo, Dutch Belted rabbits; conditions: male, Dutch Belted, rabbit, in vivo
Experimental: A single topical ocular dose of 0.02% ^14C-netarsudil mesylate (35 μL drop) was administered to both eyes of 3 male Dutch Belted rabbits in each of 7 groups. At 0.25, 0.5, 1, 4, 8, 24, and 48 h postdose, the following samples were harvested from each group: whole blood, derived plasma, AH, vitreous humor, cornea, conjunctiva, lens, iris/ciliary body, retina-choroid-plexus, liver, and kidneys. All samples were assayed for total radioactivity. A study of the same design was conducted for AR-12286, using a single topical ocular dose of 0.5% ^3H-AR-12286 (35 μL drop).

[10] = test system: normotensive Formosan Rock monkeys; experiment: Ocular hypotensive activity (IOP) in monkeys; conditions: for maximal IOP reduction: once daily, Day 3, at 4 or 8 h after dosing; for IOP reduction: Day 3
[11] = In vitro corneal metabolism, monkey; format: in vitro ADME, cynomolgus monkeys; conditions: corneal tissue punches, 37°C, pH 6.5, read-out: t1/2 of corneal metabolism
Experimental: as §1, §2

[12] = biological target: T2, protein kinase C-theta (PKC-theta) (Homo sapiens, UniProt Q04759); experiment: Kinase-Glo luminescent protein kinase assay, PKC-theta; format: biochemical; conditions: average of ≥3 replicate experiments; read-out: PKCT Ki
T2 construct: purchased Invitrogen/Life Technologies
T2 sequence (Q04759 whole entry): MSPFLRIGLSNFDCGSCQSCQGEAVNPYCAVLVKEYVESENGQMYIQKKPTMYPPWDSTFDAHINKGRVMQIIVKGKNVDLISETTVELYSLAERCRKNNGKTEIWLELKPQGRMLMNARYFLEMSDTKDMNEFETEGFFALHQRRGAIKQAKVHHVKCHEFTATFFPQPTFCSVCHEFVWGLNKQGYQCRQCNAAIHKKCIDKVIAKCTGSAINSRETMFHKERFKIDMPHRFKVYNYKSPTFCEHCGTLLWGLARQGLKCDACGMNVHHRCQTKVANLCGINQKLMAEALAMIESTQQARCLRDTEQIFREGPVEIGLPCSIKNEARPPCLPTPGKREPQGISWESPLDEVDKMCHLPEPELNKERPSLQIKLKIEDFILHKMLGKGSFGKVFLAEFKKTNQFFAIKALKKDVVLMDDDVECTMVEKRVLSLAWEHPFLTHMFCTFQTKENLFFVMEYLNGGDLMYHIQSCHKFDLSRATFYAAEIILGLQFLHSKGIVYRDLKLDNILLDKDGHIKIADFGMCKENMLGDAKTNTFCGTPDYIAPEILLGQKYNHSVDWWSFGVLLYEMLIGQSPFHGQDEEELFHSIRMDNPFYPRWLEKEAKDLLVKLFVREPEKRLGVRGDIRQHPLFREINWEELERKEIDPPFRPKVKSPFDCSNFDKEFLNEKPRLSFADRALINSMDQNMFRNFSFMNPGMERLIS

patients = test system: patients; parameters: method as in PMID 25270273; conditions: 0.02% once daily in the evening, Day 7 and 28 morning visits; cited from earlier work
[13] = test system: primary porcine TM (PTM) cells; experiment: Disruption of actin stress fibers, high-content screening; format: cell-based; conditions: Sus scrofa, 6 h, read-out: PTM IC50 (disruption of actin stress fibers)
[14] = test system: normotensive Dutch Belted rabbits; experiment: Ocular hypotensive activity (IOP) in rabbits; conditions: for maximal IOP reduction: once daily, Day 3, at 4 or 8 h after dosing

SMILES: Cc1ccc(C(=O)OCc2ccc([C@@H](CN)C(=O)Nc3ccc4cnccc4c3)cc2)c(C)c1 [Netarsudil]
- induction of fibrogenic markers α-SMA, FSP1 and Collagen I by TGF-β2 (primary HTM cells): abolished the induction of these markers by TGF-β2
- IC50 [1]: 16 nM
- half-life at 200 µM [2]: 1.63 h
- half-life at 200 µM [3]: 2.92 h
- half-life at 200 µM [4]: 2.6 h
- adverse effect noted (hyperemia) (Formosan Rock monkeys): trace to mild hyperemia was the only adverse effect noted
- NET inhibitory activity [5]: possesses NET inhibitory activity
- Ki [6]: 5310 nM
- increase in tonographic outflow facility (live monkeys): 53%
- persistence of hyperemia after dosing (Dutch Belted rabbits): 4 to 8 h
- hyperemia (scored 0 to 3, none to severe) (Dutch Belted rabbits; once daily for 3 days): trace (+0.5) to mild hyperemia (+1)
- concentration in AH ([7]; after topical netarsudil 0.02%, below the limit of detection in all but 1 of the 24 samples): < 0.1 ng/mL
- concentration at 4 h ([7]; male, New Zealand, rabbit, aqueous humor, topical, 0.02 %, read-out: concentration in AH, single sample above limit of detection): 1.82 ng/mL
- half-life at 200 µM [8]: 2.33 h
- AH half-life of related radioactivity, longer than that for AR-12286 [9]: ~60%
- Tmax in AH ([9]; topical or ocular): 8 h
- terminal elimination half-life (T1/2,e) in AH ([9]; topical or ocular): 16 to 17 h
- maximal IOP reduction ([10]; 0.01% solution): 4.2 ± 0.2 mmHg
- maximal IOP reduction ([10]; 0.02% solution): 5.8 ± 0.3 mmHg
- time for which full IOP-lowering effect was maintained after dosing ([10]; 0.04%): 24 h
- maximal IOP reduction ([10]; 0.04% solution): 7.5 ± 1.1 mmHg
- IOP reduction ([10]; 0.04%, 4 h after dosing): 7.5 ± 0.7 mmHg
- IOP reduction ([10]; 0.04%, 24 h after dosing): 7.5 ± 1.1 mmHg
- time IOP reductions were sustained after once daily dosing ([10]; monkeys): at least 24 h
- half-life at 200 µM [11]: 1.82 h
- Ki [12]: 92 nM
- patients scored as having no hyperemia or trace hyperemia (patients): 65% to 76
- IC50 [13]: 79 nM
- maximal IOP reduction ([14]; 0.005% solution): 2.5 ± 0.2 mmHg
- maximal IOP reduction ([14]; 0.01% solution): 4.6 ± 0.2 mmHg
- maximal IOP reduction ([14]; 0.02% solution): 5.0 ± 0.6 mmHg
- maximal IOP reduction ([14]; 0.04% solution): 8.1 ± 0.7 mmHg
- IOP reduction ([14]; 0.04%, 8 h after dosing on Day 3): 8.1 ± 0.7 mmHg
- time of peak IOP-lowering efficacy after dosing ([14]; Day 1): 8 h
- time IOP reductions were sustained after once daily dosing ([14]; rabbits): at least 24 h
